Values quoted from earlier work in US20230381158A1, “COMPOSITIONS FOR THE TREATMENT OF NON-ALCOHOLIC FATTY LIVER DISEASE AND NON-ALCOHOLIC STEATOHEPATITIS” (LUMOS PHARMA, INC., priority 2018, published 2023).
Counter-ions that a name gives are not always drawn. Ends that are not written are not given here.

Assays:
[1] = FDA warning
subjects = details: 12 subjects treated for 24 weeks
NAFLD patients = details: 24 week study, 50 NAFLD patients, versus placebo
Type 2 diabetic patients = Type 2 diabetic patients on metformin and/or a sulphonylurea agent, 12 week treatment
NASH patients = details: 300 mg/day for more than 2 years, Japan
adult NASH patients = details: 1 year treatment, adult NASH patients refractory to dietary intervention
[2] = five studies
[3] = tested on: adults NASH without diabetes and cirrhosis; details: 800 mg/day, versus placebo
[4] = long-term or high-dose use; several conflicting results exist
GH/IGF-1 axis = details: in vivo
[5] = compared with the control group

CCc1ccc(CCOc2ccc(CC3SC(=O)NC3=O)cc2)nc1 (centres unmarked) [pioglitazone]
risk of bladder cancer [1]: may be linked to an increased risk of bladder cancer

N[C@@H](CC(=O)N1CCn2c(nnc2C(F)(F)F)C1)Cc1cc(F)c(F)cc1F [sitagliptin]
fibrosis (subjects): no improvement | reducing liver fat (NAFLD patients): no better than placebo | hepatic steatosis or fibrosis (Type 2 diabetic patients): neither treatment reduced hepatic steatosis or fibrosis

vitamin E
hepatic fibrosis (NASH patients): can ameliorate hepatic fibrosis | TGF-β1 (adult NASH patients): reduced | serum transaminase activities (adult NASH patients): reduced | hepatic steatosis [2, 5]: significantly reduced | hepatocellular ballooning [2, 5]: significantly reduced | inflammation [2, 5]: significantly reduced | serum hepatobiliary enzymes [2, 5]: significantly reduced | fibrosis improvement [2]: not confirmed | improvements of NASH histology [3]: superior to placebo | all-cause mortality, prostatic cancer, hemorrhagic stroke [4]: may increase

CC(C)(N)C(=O)N[C@H](COCc1ccccc1)C(=O)N1CCC2(CC1)CN(S(C)(=O)=O)c1ccccc12 [ibutamoren, ibutamoren mesylate]
amplitude of pulsatile release of endogenous GH (GH/IGF-1 axis): enhances | glucose stimulated insulin secretion (pancreatic […]-cells): does not suppress | GH secretion (obese individuals): enhance GH secretion | lean body mass (obese individuals): increase lean body mass | serum IGF-1 (obese individuals): increase serum IGF-1

ghrelin (GSSFLSPEHQRVQQRKESKKPPAKLQPR; ends and bridges not checked; UniProt Q9UBU3 24-51, looked up) [hormone produced in the gastrointestinal tract that modulates GH]
insulin release from pancreatic […]-cells (pancreatic […]-cells): inhibits insulin release
